Source: patent publication US9113629B2, “4-amino-6-(4-substituted-phenyl)-picolinates and 6-amino-2-(4-substituted-phenyl)-pyrimidine-4-carboxylates and their use as herbicides” (DOW AGROSCIENCES LLC, priority 2013, dated 2015)
Read-outs that look alike come from different tables or passages of the source.

Tests used:
[1] = test system: Key Grass and Sedge Weeds as well as Grass Crops; test: Post-emergent Test II herbicidal activity (Table 6); format: in vivo; conditions: post-emergence, 336 h; for pest or weed control at 70 g/ha: 70 g ai/ha; for pest or weed control at 140 g/ha: 140 g ai/ha
Outline: (§1)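 Test species were raised 7–21 d under greenhouse conditions until reaching the first or second true leaf, sprayed with formulated compound at 187 L/ha, and kept subirrigated to avoid wash-off. Fourteen days later, damage was rated visually on a 0–100% scale against untreated plants.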

[2] = test system: Key Broadleaf Weed and Crop Species; test: Post-emergent Test II herbicidal activity (Table 5); format: in vivo; conditions: post-emergence, 336 h, 14 days after application; for pest or weed control at 70 g/ha: application rate 70 g ai/ha; for pest or weed control at 140 g/ha: application rate 140 g ai/ha
Outline: as §1

[3] = CYPES: yellow nutsedge (Cyperus esculentus), read-out: Visual Growth Reduction (%) 14 Days After Application, CYPES
[4] = DIGSA: crabgrass (Digitaria sanguinalis), read-out: Visual Growth Reduction (%) 14 Days After Application, DIGSA
[5] = ECHCG: barnyardgrass (Echinochloa crus-galli), read-out: Visual Growth Reduction (%) 14 Days After Application, ECHCG
[6] = ORYSA: rice (Oryza sativa), crop, read-out: Visual Growth Reduction (%) 14 Days After Application, ORYSA
[7] = SETFA: giant foxtail (Setaria faberi), read-out: Visual Growth Reduction (%) 14 Days After Application, SETFA
[8] = SORVU: grain sorghum (Sorghum vulgare), read-out: Visual Growth Reduction (%) 14 Days After Application, SORVU
[9] = TRZSS (wheat, Triticum aestivum), crop, read-out: Visual Growth Reduction (%) 14 Days After Application, TRZSS
[10] = ZEAMX: maize, corn (Zea mays), crop, read-out: Visual Growth Reduction (%) 14 Days After Application, ZEAMX
[11] = ABUTH: velvetleaf (Abutilon theophrasti), read-out: Visual Growth Reduction (%) 14 Days After Application, ABUTH
[12] = AMARE: redroot pigweed (Amaranthus retroflexus), read-out: Visual Growth Reduction (%) 14 Days After Application, AMARE
[13] = BRSNN: oilseed-rape, canola (Brassica napus), read-out: Visual Growth Reduction (%) 14 Days After Application, BRSNN
[14] = CHEAL: lambsquarters (Chenopodium album), read-out: Visual Growth Reduction (%) 14 Days After Application, CHEAL
[15] = EPHHL: wild poinsettia (Euphorbia heterophylla), read-out: Visual Growth Reduction (%) 14 Days After Application, EPHHL
[16] = HELAN: sunflower (Helianthus annuus), read-out: Visual Growth Reduction (%) 14 Days After Application, HELAN
[17] = VIOTR: wild pansy (Viola tricolor), read-out: Visual Growth Reduction (%) 14 Days After Application, VIOTR

SMILES: Nc1cc(-c2ccc(Br)cc2)nc(C(=O)O)c1Cl [Compound 168]
- pest or weed control at 70 g/ha [1, 3]: 95 to 100%
- pest or weed control at 140 g/ha [1, 3]: 95 to 100%
- pest or weed control at 70 g/ha [1, 4]: 75 to 84%
- pest or weed control at 140 g/ha [1, 4]: 75 to 84%
- pest or weed control at 70 g/ha [1, 5]: 95 to 100%
- pest or weed control at 140 g/ha [1, 5]: 95 to 100%
- pest or weed control at 70 g/ha [1, 6]: 0 to 29%
- pest or weed control at 140 g/ha [1, 6]: 0 to 29%
- pest or weed control at 70 g/ha [1, 7]: 95 to 100%
- pest or weed control at 140 g/ha [1, 7]: 95 to 100%
- pest or weed control at 70 g/ha [1, 8]: 95 to 100%
- pest or weed control at 140 g/ha [1, 8]: 95 to 100%
- pest or weed control at 70 g/ha [1, 9]: 60 to 74%
- pest or weed control at 140 g/ha [1, 9]: 60 to 74%
- pest or weed control at 70 g/ha [1, 10]: 95 to 100%
- pest or weed control at 140 g/ha [1, 10]: 95 to 100%
- pest or weed control at 70 g/ha [2, 11]: 95 to 100%
- pest or weed control at 140 g/ha [2, 11]: 95 to 100%
- pest or weed control at 70 g/ha [2, 12]: 95 to 100%
- pest or weed control at 140 g/ha [2, 12]: 95 to 100%
- pest or weed control at 70 g/ha [2, 13]: 95 to 100%
- pest or weed control at 140 g/ha [2, 13]: 95 to 100%
- pest or weed control at 70 g/ha [2, 14]: 95 to 100%
- pest or weed control at 140 g/ha [2, 14]: 95 to 100%
- pest or weed control at 70 g/ha [2, 15]: 95 to 100%
- pest or weed control at 140 g/ha [2, 15]: 95 to 100%
- pest or weed control at 70 g/ha [2, 16]: 95 to 100%
- pest or weed control at 140 g/ha [2, 16]: 95 to 100%
- pest or weed control at 70 g/ha [2, 17]: 0 to 29%
- pest or weed control at 140 g/ha [2, 17]: 30 to 44%
